Literature values as cited in article PMC4001449, “Thienoquinolines as Novel Disruptors of the PKCε/RACK2 Protein–Protein Interaction” (Journal of Medicinal Chemistry, 2014).

What was measured:
Conditions in all cases: cited from earlier work
[1] = biological target: PKCη (Homo sapiens, UniProt P24723); design: method as in PMID 21186251
[2] = biological target: T1, PKCε (Homo sapiens, UniProt Q02156); design: method as in PMID 21186251
T1 sequence (Q02156 1-737): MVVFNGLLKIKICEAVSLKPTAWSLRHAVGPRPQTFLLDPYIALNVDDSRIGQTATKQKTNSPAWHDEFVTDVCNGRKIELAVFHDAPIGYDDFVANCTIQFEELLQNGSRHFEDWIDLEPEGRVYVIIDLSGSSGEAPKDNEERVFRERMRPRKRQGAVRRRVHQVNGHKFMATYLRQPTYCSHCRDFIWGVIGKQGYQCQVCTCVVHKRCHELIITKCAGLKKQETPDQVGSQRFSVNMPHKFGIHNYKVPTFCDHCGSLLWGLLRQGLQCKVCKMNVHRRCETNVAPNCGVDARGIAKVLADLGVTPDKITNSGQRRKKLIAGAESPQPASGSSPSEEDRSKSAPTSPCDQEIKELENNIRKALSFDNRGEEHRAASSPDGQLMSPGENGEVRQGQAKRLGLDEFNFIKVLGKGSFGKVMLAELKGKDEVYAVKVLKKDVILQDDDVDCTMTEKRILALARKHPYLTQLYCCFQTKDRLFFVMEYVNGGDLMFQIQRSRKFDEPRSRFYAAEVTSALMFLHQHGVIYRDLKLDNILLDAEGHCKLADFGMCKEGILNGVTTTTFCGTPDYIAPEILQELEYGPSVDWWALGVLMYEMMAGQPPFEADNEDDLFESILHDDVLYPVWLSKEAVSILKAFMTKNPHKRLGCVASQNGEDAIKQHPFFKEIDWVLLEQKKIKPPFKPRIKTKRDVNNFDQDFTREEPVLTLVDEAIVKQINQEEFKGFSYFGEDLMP

[3] = biological target: ribonucleotide reductase; design: method as in PMID 11668483
[4] = test system: interaction of PKCι and its adaptor protein Par6; design: method as in PMID 16861740

Chain of PKCη (P24723 whole entry): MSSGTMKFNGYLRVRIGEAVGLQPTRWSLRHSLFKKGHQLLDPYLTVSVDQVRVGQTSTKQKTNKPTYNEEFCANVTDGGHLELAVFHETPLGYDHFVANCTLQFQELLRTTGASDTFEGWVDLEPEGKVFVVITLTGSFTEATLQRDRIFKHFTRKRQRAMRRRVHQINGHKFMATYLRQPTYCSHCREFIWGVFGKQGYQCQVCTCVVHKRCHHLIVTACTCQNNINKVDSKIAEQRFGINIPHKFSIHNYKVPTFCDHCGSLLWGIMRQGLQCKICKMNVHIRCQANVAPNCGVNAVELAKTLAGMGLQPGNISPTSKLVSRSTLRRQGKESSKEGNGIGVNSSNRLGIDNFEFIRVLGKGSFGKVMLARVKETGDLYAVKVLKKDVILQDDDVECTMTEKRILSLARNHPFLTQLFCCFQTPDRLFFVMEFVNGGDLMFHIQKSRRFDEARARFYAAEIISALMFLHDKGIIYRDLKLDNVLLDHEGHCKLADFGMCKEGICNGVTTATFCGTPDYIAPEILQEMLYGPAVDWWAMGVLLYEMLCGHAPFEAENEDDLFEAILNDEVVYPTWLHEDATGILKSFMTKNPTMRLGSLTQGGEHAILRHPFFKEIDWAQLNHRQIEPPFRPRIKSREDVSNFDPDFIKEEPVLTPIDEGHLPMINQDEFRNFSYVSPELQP

## O=C1NC(=O)N(Cc2ccccc2)C(=O)/C1=C\c1ccc2c(c1)OCO2 [BAS 02104951]
[1]
  Direct inhibition of PKCη: inhibited
[2]
  Direct inhibition of PKCε: inhibited

## hydroxyurea
[3]
  IC50: 37.2 µM

## O=C(O)CC([S-])C(=O)O.[Au+] (stereo not shown) [aurothiomalate]
[4]
  Active concentration range, prevention of PKCι/Par6 interaction: ~10 µM
